Columns and labels:
anesthetized dogs = assay: cardiovascular effects in anesthetized dogs; type: in vivo, dog; conditions: cumulative doses of 5 and 15 mg/kg, i.v.
IgE = assay: passive cutaneous anaphylaxis (PCA) test, oral, IgE (reaginic antiserum) site; type: in vivo, rat; conditions: Table I, 1 mg./kg.
Method: (§1) The antiallergy property of the compounds of this invention is evaluated by the passive cutaneous anaphylaxis (PCA) test (Ovary, J. Immun., 81, 355, 1958). In the PCA test, normal animals are injected intradermally (i.d.) with antibodies contained in serum obtained from actively sensitized animals. The animals are then challenged intravenously with antigen mixed with a dye such as Evans' Blue. The increased capillary permeability caused by the antigen-antibody reaction causes the dye to leak from the site of the antibody injection. The test animals are then asphyxiated and the intensity of the reaction determined by measuring the diameter and intensity of the blue coloration on the inner surface of the animals' skin.
(§2) The PCA test is a measure of the anti-allergic (especially anti-asthmatic) activity of a compound. Compounds which inhibit a positive PCA test induced by the rat immunochemical counterpart of human immunoglobulin E (IgE), or reagin, are considered to have anti-allergic activity (C. Mota, Ann. N.Y. Acad. Sci., 103, 264 1963). (Reagin is primarily immunoglobulin E [IgE] and is the principal immunoglobulin responsible for allergic asthma, anaphylaxis, hay fever, food sensitivities and certain manifestations of drug sensitivities, although recent evidence ascribes to the IgG class of antibodies a significant role in the mediation of allergic diseases). Such compounds when administered to a sensitized subject, human or animal, prior to the time when the subject comes into contact with antigens or substances to which it is allergic, will prevent the allergic reaction which would otherwise occur. They, therefore, provide a method for the prophylactic treatment of allergy or anaphylactic reactions of a reagin mediated nature.
(§3) To put it another way, such compounds block the release of mediators resulting from the antigen-antibody (allergic) reaction as illustrated in the PCA test using rat homocytotropic antibody--a known correlate of human reaginic antibody. Inhibition of reaginic antigen-antibody reactions in rats, the test animal of the PCA test, is regarded as representative of inhibition of human reaginic antigen-antibody reactions which occur during allergic episodes.
(§4) The ability of agents to interfere with PCA reactions is measured in male Charles River Wistar rats, 170-210 g. Reaginic antiserum, rich in IgE antibodies, is prepared according to Petillo et al., Int. Arch. Allergy, 44, 309 (1973). Hyperimmune antiserum rich in IgG antibodies to hen egg albumin is prepared according to Orange et al., J. Exptl. Med., 127, 767 (1968). Forty-eight hours prior to antigen challenge, the reaginic antiserum is injected intradermally (i.d.) into the shaved skin of a normal rat's back; 5 hours before challenge the hyperimmune antisera is similarly injected. At a third site 60 mcg. histamine dihydrochloride and 0.5 mcg. serotonin creatinine sulfate are injected i.d. just prior to antigen challenge as a check for antihistaminic, antiserotonin and unspecific types of blockage; the compounds of the instant invention or saline are then administered i.v. and immediately followed by the challenge of 5 mg. egg albumen and 2.5 mg. Evans' Blue dye in saline. In the case of oral administration Evans' Blue dye and egg albumin are given 5 minutes after administration of the drug. Thirty minutes later the animals are asphyxiated using chloroform and the skin of the back removed and reversed for observation. A score is assigned each injection site equal to the product of the diameter of the site in mm. and a grade of 0.1, 0.5, 1, 2, 3 or 4 proportional to intensity of dye coloration. The scores for a given injection site are summed for each group of five animals and compared to the saline treated controls. The difference is expressed as percent blockage due to the compound employed. […]

[1] = plasma concentration / oral absorption in rats; type: in vivo, rat
Method: This is supported by the observations of plasma concentrations of 3 to 7 μg/ml one hour after oral administration of III, 50 to 300 mg/kg.

IgG = assay: passive cutaneous anaphylaxis (PCA) test, oral, IgG (hyperimmune antiserum) site; type: in vivo, rat; conditions: Table I, 1 mg./kg.
Method: as §1, §2, §3, §4

glucose tolerance = assay: glucose tolerance; type: in vivo, rat; conditions: 10, 30, or 100 mg/kg p.o. with glucose 1 g/kg p.o.
Excerpt: This effect may be due to a delayed absorption of glucose related to a possible effect on gastric emptying.

blood glucose = blood glucose levels in fasted rats; type: in vivo, rat; conditions: oral, 10, 30 or 100 mg/kg; fasted 24 hours

O=C(Nc1nnn[nH]1)c1cnc2sc3c(n2c1=O)CCCC3 [compound III, N-(5-tetrazolyl)-1-oxo-1H-cyclohexenothiazolo[3,2-a]pyrimidine-2-carboxamide]
blood pressure (anesthetized dogs): transient hypotension
heart rate (anesthetized dogs): variable changes in heart rate
pressor responses to epinephrine and bilateral carotid occlusion (anesthetized dogs): diminished slightly
Oral Activity (% of Protection) of Amides in the PCA Test, IgE 1 mg./kg. (IgE): 47%
concentration at 1 h ([1]; plasma, rat, one hour, oral 50 to 300 mg/kg, read-out: plasma concentration one hour after oral administration, rat): 3000 to 7000 ng/mL
oral absorption, rat ([1]; ratio of comparably effective oral and intravenous doses in rat PCA test): good oral absorption
Oral Activity (% of Protection) of Amides in the PCA Test, IgG 1 mg./kg. (IgG): 45%
effect on glucose tolerance (glucose tolerance): apparent dose-dependent improvement in glucose tolerance
changes in blood glucose levels (blood glucose): did not exhibit any changes in blood glucose levels

Source: patent publication US4414388A, “1-Oxo-1H-thiazolo[3,2-a]pyrimidine-2-carboxamides” (Pfizer Inc., priority 1981, dated 1983)
